{"source": "patent US20140163050A1", "about": "“Use of 1H-quinazoline-2,4-diones” (priority 2011, published 2014)", "key": {"OF1 mice": {"tested_on": "OF1 mice", "test": "maximal electroshock test (MES Test)", "format": "in vivo, mouse", "details": "p.o.; for MES-Test (1 h, po) ED50: pre-treatment time 1 h", "description": "Compounds of the invention were tested in OF1 mice using the maximal electroshock test (MES Test) described in detail by Schmutz et al., Naunyn-Schmiedeberg's Arch Pharmacol 1990, 342, 61-66. Briefly, generalized tonic-clonic convulsions of the hind extremities were induced by passing electrical current through temporal electrodes (50 Hz, 18 mA, 0.2 s). […] 30 mg/kg carbamazepine was used as a positive control; mice were classified as protected by a compound If the duration of the seizure lasted only 3 second or less. Five mice were used for each treatment condition and the percentage of protected mice was used as readout (i.e. a compound could give 0%, 20%, 40%, 60%, 80% or 100% protection). […]\nED50 values (ED: effective dose) were calculated using GraphPad Prism, v4.02."}, "mouse": {"tested_on": "mouse", "test": "Oral bioavailability: in vivo orally active (audiogenic mouse test and/or MES test)", "description": "The oral bioavailability was tested using the audiogenic mouse test (Audiogenic seizures, R. L. Collins; Chapter 14, pages: 347-372. In: Experimental Models of Epilepsy; By: Pupura, Penry, Tower, Woodbury, Walter, Raven Press, New York, 1972. Standard Book Number: 0-911216-26-X) and/or the MES test."}}, "data": [{"smiles": "CC(C)c1cc2[nH]c(=O)n(NS(C)(=O)=O)c(=O)c2cc1-c1ccnn1C(C)C", "note": "[Compound C-8, N-[7-Isopropyl-6-(2-isopropyl-2H-pyrazol-3-yl)-2,4-dioxo-1,4-dihydro-2H-quinazolin-3-yl]-methanesulfonamide]", "values": [{"measurement": "MES-Test (1 h, po) protection", "setting": "OF1 mice; @ 50 (mg/kg)", "value": 40, "unit": "% @ 50"}, {"measurement": "In vivo orally active", "setting": "mouse", "value": "yes"}]}, {"smiles": "CS(=O)(=O)Nn1c(=O)[nH]c2cc(C(F)(F)F)c(C3CCCO3)cc2c1=O", "note": "(stereo not drawn) [Compound B-2, N-[2,4-Dioxo-6-(tetrahydro-furan-2-yl)-7-trifluoromethyl-1,4-dihydro-2H-quinazolin-3-yl]-methanesulfonamide]", "values": [{"measurement": "In vivo orally active", "setting": "mouse", "value": "Yes"}]}, {"smiles": "Cn1nccc1-c1cc2c(=O)n(NS(C)(=O)=O)c(=O)[nH]c2cc1C(F)F", "note": "[Compound C-9, N-[7-Difluoromethyl-6-(2-methyl-2H-pyrazol-3-yl)-2,4-dioxo-1,4-dihydro-2H-quinazolin-3-yl]-methanesulfonamide]", "values": [{"measurement": "In vivo orally active", "setting": "mouse", "value": "Yes"}]}, {"smiles": "COCCC(O)c1cc2c(=O)n(NS(C)(=O)=O)c(=O)[nH]c2cc1C(F)(F)F", "note": "(stereo not drawn) [Compound A-18, N-[6-(1-Hydroxy-3-methoxy-propyl)-2,4-dioxo-7-trifluoromethyl-1,4-dihydro-2H-quinazolin-3-yl]-methanesulfonamide]", "values": [{"measurement": "In vivo orally active", "setting": "mouse", "value": "Yes"}]}, {"smiles": "COCCn1nccc1-c1cc2c(=O)n(NS(C)(=O)=O)c(=O)[nH]c2cc1C(C)C", "note": "[Compound C-1, N-{7-Isopropyl-6-[2-(2-methoxy-ethyl)-2H-pyrazol-3-yl]-2,4-dioxo-1,4-dihydro-2H-quinazolin-3-yl}-methanesulfonamide]", "values": [{"measurement": "MES-Test (1 h, po) protection", "setting": "OF1 mice; @ 25 (mg/kg)", "value": 40, "unit": "% @ 25"}, {"measurement": "In vivo orally active", "setting": "mouse", "value": "yes"}]}, {"smiles": "CS(=O)(=O)Nn1c(=O)[nH]c2cc(C(F)(F)F)c(-c3ccnn3O)cc2c1=O", "note": "[Compound C-5, N-[6-(2-Hydroxy-2H-pyrazol-3-yl)-2,4-dioxo-7-trifluoromethyl-1,4-dihydro-2H-quinazolin-3-yl]-methanesulfonamide]", "values": [{"measurement": "In vivo orally active", "setting": "mouse", "value": "Yes"}]}, {"smiles": "CCc1cc2[nH]c(=O)n(NS(C)(=O)=O)c(=O)c2cc1-c1ccnn1CC", "note": "[Compound C-12, N-[7-Ethyl-6-(2-ethyl-2H-pyrazol-3-yl)-2,4-dioxo-1,4-dihydro-2H-quinazolin-3-yl]-methanesulfonamide]", "values": [{"measurement": "In vivo orally active", "setting": "mouse", "value": "Yes"}]}, {"smiles": "CC(OC1CCCC1)c1cc2c(=O)n(NS(C)(=O)=O)c(=O)[nH]c2cc1C(F)(F)F", "note": "(stereo not drawn) [Compound A-14, N-[6-(1-Cyclopentyloxy-ethyl)-2,4-dioxo-7-trifluoromethyl-1,4-dihydro-2H-quinazolin-3-yl]-methanesulfonamide]", "values": [{"measurement": "In vivo orally active", "setting": "mouse", "value": "yes"}]}, {"smiles": "Cn1nccc1-c1cc2c(=O)n(NS(C)(=O)=O)c(=O)[nH]c2cc1C(C)(F)F", "note": "[Compound C-15, N-[7-(1,1-difluoro-ethyl)-6-(2-methyl-2H-pyrazol-3-yl)-2,4-dioxo-1,4-dihydro-2H-quinazolin-3-yl]-methanesulfonamide]", "values": [{"measurement": "MES-Test (1 h, po) protection", "setting": "OF1 mice; @ 20 (mg/kg)", "value": 80, "unit": "% @ 20"}, {"measurement": "In vivo orally active", "setting": "mouse", "value": "Yes"}]}, {"smiles": "CCC(O)c1cc2c(=O)n(NS(C)(=O)=O)c(=O)[nH]c2cc1C(F)(F)F", "note": "(stereo not drawn) [Compound A-3, N-[6-(1-Hydroxy-propyl)-2,4-dioxo-7-trifluoromethyl-1,4-dihydro-2H-quinazolin-3-yl]-methanesulfonamide]", "values": [{"measurement": "In vivo orally active", "setting": "mouse", "value": "Yes"}]}, {"smiles": "CC(C)n1nccc1-c1cc2c(=O)n(NS(C)(=O)=O)c(=O)[nH]c2cc1CF", "note": "[Compound C-3, N-[7-Fluoromethyl-6-(2-isopropyl-2H-pyrazol-3-yl)-2,4-dioxo-1,4-dihydro-2H-quinazolin-3-yl]-methanesulfonamide]", "values": [{"measurement": "In vivo orally active", "setting": "mouse", "value": "Yes"}]}, {"smiles": "CC(C)n1nccc1-c1cc2c(=O)n(NS(C)(=O)=O)c(=O)[nH]c2cc1C(F)(F)F", "note": "[Compound C-2, N-[6-(2-Isopropyl-2H-pyrazol-3-yl)-2,4-dioxo-7-trifluoromethyl-1,4-dihydro-2H-quinazolin-3-yl]-methanesulfonamide]", "values": [{"measurement": "In vivo orally active", "setting": "mouse", "value": "Yes"}]}, {"smiles": "CC(F)c1cc2[nH]c(=O)n(NS(C)(=O)=O)c(=O)c2cc1-c1ccnn1C(C)C", "note": "(stereo not drawn) [Compound C-17, N-[7-(1-fluoro-ethyl)-6-(2-isopropyl-2H-pyrazol-3-yl)-2,4-dioxo-1,4-dihydro-2H-quinazolin-3-yl]-methanesulfonamide]", "values": [{"measurement": "In vivo orally active", "setting": "mouse", "value": "Yes"}]}, {"smiles": "Cn1nccc1-c1cc2c(=O)n(NS(C)(=O)=O)c(=O)[nH]c2cc1C(F)(F)F", "note": "[Compound C-18, N-[6-(2-Methyl-2H-pyrazol-3-yl)-2,4-dioxo-7-trifluoromethyl-1,4-dihydro-2H-quinazolin-3-yl]-methanesulfonamide]", "values": [{"measurement": "In vivo orally active", "setting": "mouse", "value": "Yes"}]}, {"smiles": "CCOC(C)c1cc2c(=O)n(NS(C)(=O)=O)c(=O)[nH]c2cc1C(F)(F)F", "note": "(stereo not drawn) [Compound A-5, N-[6-(1-Ethoxy-ethyl)-2,4-dioxo-7-trifluoromethyl-1,4-dihydro-2H-quinazolin-3-yl]methanesulfonamide]", "values": [{"measurement": "In vivo orally active", "setting": "mouse", "value": "yes"}]}, {"smiles": "CC(C)OC(C)c1cc2c(=O)n(NS(C)(=O)=O)c(=O)[nH]c2cc1C(F)(F)F", "note": "(stereo not drawn) [Compound A-4, N-[6-(1-Isopropoxy-ethyl)-2,4-dioxo-7-trifluoromethyl-1,4-dihydro-2H-quinazolin-3-yl]-methanesulfonamide]", "values": [{"measurement": "In vivo orally active", "setting": "mouse", "value": "Yes"}]}, {"smiles": "CCCOC(CC)c1cc2c(=O)n(NS(C)(=O)=O)c(=O)[nH]c2cc1C(F)(F)F", "note": "(stereo not drawn) [Compound A-6, N-[2,4-Dioxo-6-(1-propoxy-propyl)-7-trifluoromethyl-1,4-dihydro-2H-quinazolin-3-yl]-methanesulfonamide]", "values": [{"measurement": "In vivo orally active", "setting": "mouse", "value": "Yes"}]}, {"smiles": "CCc1cc2[nH]c(=O)n(NS(C)(=O)=O)c(=O)c2cc1-c1ccnn1C(C)C", "note": "[Compound C-6, N-[7-Ethyl-6-(2-isopropyl-2H-pyrazol-3-yl)-2,4-dioxo-1,4-dihydro-2H-quinazolin-3-yl]-methanesulfonamide]", "values": [{"measurement": "MES-Test (1 h, po) protection", "setting": "OF1 mice; @ 50 (mg/kg)", "value": 20, "unit": "% @ 50"}, {"measurement": "In vivo orally active", "setting": "mouse", "value": "yes"}]}, {"smiles": "CCCC(O)c1cc2c(=O)n(NS(C)(=O)=O)c(=O)[nH]c2cc1C(F)(F)F", "note": "(stereo not drawn) [Compound A-15, N-[6-(1-Hydroxy-butyl)-2,4-dioxo-7-trifluoromethyl-1,4-dihydro-2H-quinazolin-3-yl]-methanesulfonamide]", "values": [{"measurement": "In vivo orally active", "setting": "mouse", "value": "Yes"}]}, {"smiles": "CC(C)n1nccc1-c1cc2c(=O)n(NS(C)(=O)=O)c(=O)[nH]c2cc1C(F)F", "note": "[Compound C-10, N-[7-Difluoromethyl-6-(2-isopropyl-2H-pyrazol-3-yl)-2,4-dioxo-1,4-dihydro-2H-quinazolin-3-yl]-methanesulfonamide]", "values": [{"measurement": "In vivo orally active", "setting": "mouse", "value": "Yes"}]}, {"smiles": "COC(C)c1cc2c(=O)n(NS(C)(=O)=O)c(=O)[nH]c2cc1C(F)(F)F", "note": "(stereo not drawn) [Compound A-2, N-[6-(1-Methoxy-ethyl)-2,4-dioxo-7-trifluoromethyl-1,4-dihydro-2H-quinazolin-3-yl]-methanesulfonamide]", "values": [{"measurement": "In vivo orally active", "setting": "mouse", "value": "Yes"}]}, {"smiles": "CCc1cc2[nH]c(=O)n(NS(C)(=O)=O)c(=O)c2cc1-c1ccnn1C", "note": "[Compound C-11, N-[7-Ethyl-6-(2-methyl-2H-pyrazol-3-yl)-2,4-dioxo-1,4-dihydro-2H-quinazolin-3-yl]-methanesulfonamide]", "values": [{"measurement": "In vivo orally active", "setting": "mouse", "value": "Yes"}]}, {"smiles": "CC(C)n1nccc1-c1cc2c(=O)n(NS(C)(=O)=O)c(=O)[nH]c2cc1C(C)(F)F", "note": "[Compound C-16, N-[7-(1,1-difluoro-ethyl)-6-(2-isopropyl-2H-pyrazol-3-yl)-2,4-dioxo-1,4-dihydro-2H-quinazolin-3-yl]-methanesulfonamide]", "values": [{"measurement": "In vivo orally active", "setting": "mouse", "value": "Yes"}]}, {"smiles": "COCCn1nccc1-c1cc2c(=O)n(NS(C)(=O)=O)c(=O)[nH]c2cc1C(F)(F)F", "note": "[Compound C-4, N-{6-[2-(2-Methoxy-ethyl)-2H-pyrazol-3-yl]-2,4-dioxo-7-trifluoromethyl-1,4-dihydro-2H-quinazolin-3-yl}-methanesulfonamide]", "values": [{"measurement": "In vivo orally active", "setting": "mouse", "value": "Yes"}]}, {"smiles": "CS(=O)(=O)Nn1c(=O)[nH]c2cc(C(F)(F)F)c(C3CCCO3)cc2c1=O", "note": "[B-2 (R), N-[2,4-Dioxo-6-(tetrahydro-furan-2-yl)-7-trifluoromethyl-1,4-dihydro-2H-quinazolin-3-yl]-methanesulfonamide]", "values": [{"measurement": "MES-Test (1 h, po) ED50", "setting": "OF1 mice", "value": 12.8, "unit": "mg/kg"}]}, {"smiles": "CS(=O)(=O)Nn1c(=O)[nH]c2cc(C(F)(F)F)c(C3CCCO3)cc2c1=O", "note": "[B-2 (S), N-[2,4-Dioxo-6-(tetrahydro-furan-2-yl)-7-trifluoromethyl-1,4-dihydro-2H-quinazolin-3-yl]-methanesulfonamide]", "values": [{"measurement": "MES-Test (1 h, po) ED50", "setting": "OF1 mice", "value": 33.2, "unit": "mg/kg"}]}, {"smiles": "CCOC(CC)c1cc2c(=O)n(NS(C)(=O)=O)c(=O)[nH]c2cc1C(F)(F)F", "note": "(stereo not drawn) [Compound A-13, N-[6-(1-Ethoxy-propyl)-2,4-dioxo-7-trifluoromethyl-1,4-dihydro-2H-quinazolin-3-yl]-methanesulfonamide]", "values": [{"measurement": "In vivo orally active", "setting": "mouse", "value": "Yes"}]}, {"smiles": "CC(O)c1cc2c(=O)n(NS(C)(=O)=O)c(=O)[nH]c2cc1C(F)(F)F", "note": "(stereo not drawn) [Compound A-1, N-[6-(1-Hydroxy-ethyl)-2,4-dioxo-7-trifluoromethyl-1,4-dihydro-2H-quinazolin-3-yl]-methanesulfonamide]", "values": [{"measurement": "In vivo orally active", "setting": "mouse", "value": "Yes"}]}, {"smiles": "CCC(OC(C)C)c1cc2c(=O)n(NS(C)(=O)=O)c(=O)[nH]c2cc1C(F)(F)F", "note": "(stereo not drawn) [Compound A-7, N-[6-(1-isopropoxy-propyl)-2,4-dioxo-7-trifluoromethyl-1,4-dihydro-2H-quinazolin-3-yl]-methanesulfonamide]", "values": [{"measurement": "In vivo orally active", "setting": "mouse", "value": "Yes"}]}]}
